This note sets out measurements from US12662479B2 (Foghorn Therapeutics Inc., priority 2020, dated 2026).

The target in experiment [1] is T1, HiBit-BRM fusion protein (Homo sapiens, UniProt P51531).
T1 construct: expressed in transfected cells
Put plainly: HiBiT-BRM cell-based degradation assay (Nano-Glo HiBiT Lytic Detection, 24 h). To be noted: HeLa cells expressing HiBiT-BRM; for DC50: read-out: BRM HiBit Degradation IC50; for BRM HiBit Degradation Maximum measured: top dose 30 μM. The protocol:
Procedure: A stable HeLa cell line expressing HiBiT-BRM was generated. On day 0, 5000 cells were seeded in 40 μL of media into each well of 384-well cell culture plates. On day 1, cells were treated with 120 nL DMSO or 120 nL of 3-fold serially DMSO-diluted compounds (10 points in duplicate with 30 μM as final top dose). Subsequently plates were incubated for 24 h in a standard tissue culture incubator and equilibrated at room temperature for 15 minutes. Nano-Glo HiBiT Lytic Detection System (Promega N3050) reagent was freshly prepared and 20 ul was added to each well. Upon addition of this LgBit-containing reagent, the HiBiT and LgBiT proteins associate to form the luminescent NanoBiT luciferase. The plates were shaken for 10 minutes at room temperature and the bioluminescence read using an EnVision plate reader (PerkinElmer).
(§1) The degradation % was calculated using the following formula: % degradation=100%−100%×(LumSample−LumLC)/(LumHC−LumLC). DMSO treated cells are employed as High Control (HC) and 2 μM of a known BRM/BRG1 degrader standard treated cells are employed as Low Control (LC).
On the technique in general: The HiBiT peptide binds its large partner to form an active luciferase.

Experiment [2] concerns the target T2, HiBit-BRG1 fusion protein (Homo sapiens, UniProt P51532).
T2 construct: expressed in transfected cells
Put plainly: HiBiT-BRG1 cell-based degradation assay (Nano-Glo HiBiT Lytic Detection, 24 h). To be noted: HeLa cells expressing HiBit-BRG1 and LgBit; for DC50: read-out: BRG1 HiBit Degradation IC50; for Dmax: HeLa, top dose 30 μM, read-out: BRG1 HiBit Degradation Maximum measured. The protocol: Procedure: A stable HeLa cell line expressing HiBiT-BRM was generated. On day 0, 5000 cells were seeded in 40 μL of media into each well of 384-well cell culture plates. […] Nano-Glo HiBiT Lytic Detection System (Promega N3050) reagent was freshly prepared and 20 ul was added to each well. Upon addition of this LgBit-containing reagent, the HiBiT and LgBiT proteins associate to form the luminescent NanoBiT luciferase. The plates were shaken for 10 minutes at room temperature and the bioluminescence read using an EnVision plate reader (PerkinElmer).
For measurement of BRG1 degradation, a stable HeLa cell line expressing HiBit-BRG1 and LgBit was generated. The same protocol as above was then followed.
as §1

Structures are written as SMILES.

T2 sequence (P51532 whole entry, the tested form may be a part): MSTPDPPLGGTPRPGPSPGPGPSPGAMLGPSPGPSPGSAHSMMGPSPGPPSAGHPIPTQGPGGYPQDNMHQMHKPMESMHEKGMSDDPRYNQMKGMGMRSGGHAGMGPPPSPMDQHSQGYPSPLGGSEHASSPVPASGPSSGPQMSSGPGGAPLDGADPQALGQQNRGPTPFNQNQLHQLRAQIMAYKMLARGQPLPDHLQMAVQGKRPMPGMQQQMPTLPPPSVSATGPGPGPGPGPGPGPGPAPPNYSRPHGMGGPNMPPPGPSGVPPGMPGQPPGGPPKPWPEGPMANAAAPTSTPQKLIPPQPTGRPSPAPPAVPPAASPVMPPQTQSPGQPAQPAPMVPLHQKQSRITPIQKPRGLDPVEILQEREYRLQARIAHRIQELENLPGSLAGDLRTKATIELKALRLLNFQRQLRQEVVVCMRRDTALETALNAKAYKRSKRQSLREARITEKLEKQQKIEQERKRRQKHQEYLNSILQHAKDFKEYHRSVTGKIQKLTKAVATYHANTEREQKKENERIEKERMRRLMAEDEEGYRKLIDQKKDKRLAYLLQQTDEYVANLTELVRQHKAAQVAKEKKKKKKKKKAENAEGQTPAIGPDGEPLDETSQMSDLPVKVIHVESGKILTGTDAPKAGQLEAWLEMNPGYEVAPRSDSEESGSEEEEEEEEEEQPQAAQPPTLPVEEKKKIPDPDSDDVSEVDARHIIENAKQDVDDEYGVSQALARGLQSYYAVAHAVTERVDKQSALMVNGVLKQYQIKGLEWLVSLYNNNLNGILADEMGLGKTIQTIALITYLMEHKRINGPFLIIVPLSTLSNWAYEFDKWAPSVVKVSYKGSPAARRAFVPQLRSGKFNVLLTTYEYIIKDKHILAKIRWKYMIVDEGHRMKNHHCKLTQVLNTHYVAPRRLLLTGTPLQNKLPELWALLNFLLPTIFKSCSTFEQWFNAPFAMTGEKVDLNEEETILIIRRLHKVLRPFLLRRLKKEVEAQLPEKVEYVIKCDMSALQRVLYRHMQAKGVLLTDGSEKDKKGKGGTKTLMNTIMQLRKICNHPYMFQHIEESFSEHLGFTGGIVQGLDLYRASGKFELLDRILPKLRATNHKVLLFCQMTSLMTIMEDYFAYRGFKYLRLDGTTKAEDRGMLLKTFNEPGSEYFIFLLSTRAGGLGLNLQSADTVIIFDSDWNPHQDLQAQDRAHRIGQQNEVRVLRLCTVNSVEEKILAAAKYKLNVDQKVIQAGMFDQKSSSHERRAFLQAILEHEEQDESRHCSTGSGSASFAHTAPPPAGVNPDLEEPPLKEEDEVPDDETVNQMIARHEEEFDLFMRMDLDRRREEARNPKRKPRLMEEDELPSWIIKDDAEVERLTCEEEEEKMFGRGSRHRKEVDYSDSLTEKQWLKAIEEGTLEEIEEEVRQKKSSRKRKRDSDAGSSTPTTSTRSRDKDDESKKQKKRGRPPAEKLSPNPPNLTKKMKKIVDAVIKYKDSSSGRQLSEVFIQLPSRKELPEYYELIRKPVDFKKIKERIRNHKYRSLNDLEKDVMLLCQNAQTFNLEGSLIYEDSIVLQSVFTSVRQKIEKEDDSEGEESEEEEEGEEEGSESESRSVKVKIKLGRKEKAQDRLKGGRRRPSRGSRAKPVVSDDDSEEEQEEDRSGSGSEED
T1 sequence (P51531 whole entry, the tested form may be a part): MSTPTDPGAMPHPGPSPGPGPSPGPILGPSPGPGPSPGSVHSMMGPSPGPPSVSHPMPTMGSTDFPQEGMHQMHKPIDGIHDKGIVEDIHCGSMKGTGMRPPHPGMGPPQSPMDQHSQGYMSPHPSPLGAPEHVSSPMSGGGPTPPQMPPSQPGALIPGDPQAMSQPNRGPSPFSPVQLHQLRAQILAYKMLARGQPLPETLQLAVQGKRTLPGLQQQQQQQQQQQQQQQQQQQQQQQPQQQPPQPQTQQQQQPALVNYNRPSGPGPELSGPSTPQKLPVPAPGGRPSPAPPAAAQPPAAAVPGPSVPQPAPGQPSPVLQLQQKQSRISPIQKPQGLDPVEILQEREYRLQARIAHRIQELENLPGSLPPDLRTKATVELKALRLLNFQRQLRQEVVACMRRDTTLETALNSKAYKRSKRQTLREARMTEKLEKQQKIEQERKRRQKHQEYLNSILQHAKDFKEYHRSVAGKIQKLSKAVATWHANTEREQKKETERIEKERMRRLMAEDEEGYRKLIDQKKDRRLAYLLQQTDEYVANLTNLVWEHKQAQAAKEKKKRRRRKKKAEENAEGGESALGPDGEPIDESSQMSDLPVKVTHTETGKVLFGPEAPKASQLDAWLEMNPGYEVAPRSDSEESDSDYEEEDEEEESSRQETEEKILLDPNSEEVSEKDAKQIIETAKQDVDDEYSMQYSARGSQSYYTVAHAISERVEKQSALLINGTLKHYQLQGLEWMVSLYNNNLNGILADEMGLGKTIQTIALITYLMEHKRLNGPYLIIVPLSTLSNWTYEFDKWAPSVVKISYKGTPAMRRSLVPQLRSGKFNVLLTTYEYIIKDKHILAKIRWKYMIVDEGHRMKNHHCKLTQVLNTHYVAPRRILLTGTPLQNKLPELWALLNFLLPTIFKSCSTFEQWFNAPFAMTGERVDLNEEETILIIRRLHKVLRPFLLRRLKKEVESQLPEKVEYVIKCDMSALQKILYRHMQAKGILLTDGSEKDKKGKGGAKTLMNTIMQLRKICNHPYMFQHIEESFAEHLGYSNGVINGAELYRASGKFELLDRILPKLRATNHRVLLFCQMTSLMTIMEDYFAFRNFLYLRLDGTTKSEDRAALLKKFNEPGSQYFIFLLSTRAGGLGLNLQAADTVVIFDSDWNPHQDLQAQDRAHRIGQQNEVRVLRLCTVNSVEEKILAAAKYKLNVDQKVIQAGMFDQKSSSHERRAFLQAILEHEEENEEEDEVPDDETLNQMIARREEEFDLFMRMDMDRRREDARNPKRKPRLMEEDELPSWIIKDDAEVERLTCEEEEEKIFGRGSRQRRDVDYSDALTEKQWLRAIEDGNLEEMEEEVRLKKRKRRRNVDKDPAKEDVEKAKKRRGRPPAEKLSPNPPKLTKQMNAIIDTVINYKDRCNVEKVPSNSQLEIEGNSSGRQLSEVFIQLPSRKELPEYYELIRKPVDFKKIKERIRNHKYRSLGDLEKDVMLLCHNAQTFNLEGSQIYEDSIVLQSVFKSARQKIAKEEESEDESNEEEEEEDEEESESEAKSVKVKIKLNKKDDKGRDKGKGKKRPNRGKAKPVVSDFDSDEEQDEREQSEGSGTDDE

`CS(=O)(=O)n1ccc(C(=O)NCC(=O)Nc2nc(-c3cccc(-c4ccnc(C5(C(=O)NCCCCCNc6cccc7c6C(=O)N(C6CCC(=O)NC6=O)C7=O)CC5)c4)c3)cs2)c1` (stereo not drawn) [Compound 12, N-(2-((4-(3-(2-(1-((5-((2-(2,6-dioxopiperidin-3-yl)-1,3-dioxoisoindolin-4-yl)amino)pentyl)carbamoyl)cyclopropyl)-pyridin-4-yl)phenyl)thiazol-2-yl)amino)-2-oxoethyl)-1-(methylsulfonyl)-1H-pyrrole-3-carboxamide]: in experiment [1], the DC50 is greater than 10 µM and the “BRM HiBit Degradation Maximum measured” value was “C (‘C’ = Maximum degradation <50%)”. Further, in experiment [2], the DC50 was in the range of 0.1 to 1 µM and the Dmax was greater than 75%.

As for `CS(=O)(=O)n1ccc(C(=O)NCC(=O)Nc2nc(-c3cccc(-c4ccnc(C5(C(=O)NCCCCCCCCNC(=O)COc6cccc7c6C(=O)N(C6CCC(=O)NC6=O)C7=O)CC5)c4)c3)cs2)c1` (stereo not drawn) [Compound 13, N-(2-((4-(3-(2-(1-((8-(2-((2-(2,6-dioxopiperidin-3-yl)-1,3-dioxoisoindolin-4-yl)oxy)acetamido)octyl)carbamoyl)-cyclopropyl)pyridin-4-yl)phenyl)thiazol-2-yl)amino)-2-oxoethyl)-1-(methylsulfonyl)-1H-pyrrole-3-carboxamide], in experiment [1], the DC50 is greater than 10 µM and the “BRM HiBit Degradation Maximum measured” value was “C (‘C’ = Maximum degradation <50%)”. Besides, in experiment [2], the DC50 fell in the range of 0.1 to 1 µM and the Dmax lay within 50 to 75%.

On to `CS(=O)(=O)n1ccc(C(=O)NCC(=O)Nc2nc(-c3cccc(-c4ccnc(C5(C(=O)N6CCC(C7CCN(C(=O)COc8cccc9c8C(=O)N(C8CCC(=O)NC8=O)C9=O)CC7)CC6)CC5)c4)c3)cs2)c1` (stereo not drawn) [Compound 14, N-(2-((4-(3-(2-(1-(1′-(2-((2-(2,6-dioxopiperidin-3-yl)-1,3-dioxoisoindolin-4-yl)oxy)acetyl)-[4,4′-bipiperidine]-1-carbonyl)cyclopropyl)pyridin-4-yl)phenyl)thiazol-2-yl)amino)-2-oxoethyl)-1-(methylsulfonyl)-1H-pyrrole-3-carboxamide], for which, in experiment [1], the DC50 was greater than 10 µM and the “BRM HiBit Degradation Maximum measured” value is recorded as “C (‘C’ = Maximum degradation <50%)”. Also, in experiment [2], the DC50 was greater than 10 µM and the Dmax was less than 50%.

For `CN(CC(=O)NCCCCCCCCNC(=O)COc1cccc2c1C(=O)N(C1CCC(=O)NC1=O)C2=O)c1cc(-c2cccc(-c3csc(NC(=O)CNC(=O)c4ccn(S(C)(=O)=O)c4)n3)c2)ccn1` (stereo not drawn) [Compound 15, N-(2-((4-(3-(2-((2-((8-(2-((2-(2,6-dioxopiperidin-3-yl)-1,3-dioxoisoindolin-4-yl)oxy)acetamido)octyl)amino)-2-oxoethyl)(methyl)amino)pyridin-4-yl)phenyl)thiazol-2-yl)amino)-2-oxoethyl)-1-(methylsulfonyl)-1H-pyrrole-3-carboxamide], in experiment [1], the DC50 is greater than 10 µM and the “BRM HiBit Degradation Maximum measured” value is reported as “C (‘C’ = Maximum degradation <50%)”. In experiment [2], the DC50 was greater than 10 µM and the Dmax was less than 50%.

Regarding `CN(CC(=O)NCCCCCNc1cccc2c1C(=O)N(C1CCC(=O)NC1=O)C2=O)c1cc(-c2cccc(-c3csc(NC(=O)CNC(=O)c4ccn(S(C)(=O)=O)c4)n3)c2)ccn1` (stereo not drawn) [Compound 16, N-(2-((4-(3-(2-((2-((5-((2-(2,6-dioxopiperidin-3-yl)-1,3-dioxoisoindolin-4-yl)amino)pentyl)amino)-2-oxoethyl)(methyl)amino)pyridin-4-yl)phenyl)thiazol-2-yl)amino)-2-oxoethyl)-1-(methylsulfonyl)-1H-pyrrole-3-carboxamide], in experiment [1], the DC50 is greater than 10 µM and the “BRM HiBit Degradation Maximum measured” value is on record as “C (‘C’ = Maximum degradation <50%)”. In addition, in experiment [2], the DC50 was greater than 10 µM and the Dmax was less than 50%.

In the case of `CN(CC(=O)N1CCC(C2CCN(C(=O)COc3cccc4c3C(=O)N(C3CCC(=O)NC3=O)C4=O)CC2)CC1)c1cc(-c2cccc(-c3csc(NC(=O)CNC(=O)c4ccn(S(C)(=O)=O)c4)n3)c2)ccn1` (stereo not drawn) [Compound 17, N-(2-((4-(3-(2-((2-(1′-(2-((2-(2,6-dioxopiperidin-3-yl)-1,3-dioxoisoindolin-4-yl)oxy)acetyl)-[4,4′-bipiperidin]-1-yl)-2-oxoethyl)(methyl)amino)pyridin-4-yl)phenyl)thiazol-2-yl)amino)-2-oxoethyl)-1-(methylsulfonyl)-1H-pyrrole-3-carboxamide], in experiment [1], the DC50 was greater than 10 µM and the “BRM HiBit Degradation Maximum measured” value is “C (‘C’ = Maximum degradation <50%)”. Further, in experiment [2], the DC50 was greater than 10 µM and the Dmax is less than 50%.

Take `Cc1ncsc1-c1ccc(CNC(=O)[C@@H]2C[C@@H](O)CN2C(=O)[C@@H](NC(=O)COCC(=O)NCc2cccc(-c3cccc(-c4csc(NC(=O)CNC(=O)c5ccn(S(C)(=O)=O)c5)n4)c3)c2)C(C)(C)C)cc1` [Compound 18, N-[2-[[4-[3-[3-[[[2-[2-[[(1S)-1-[(2S,4R)-4-hydroxy-2-[[4-(4-methylthiazol-5-yl)phenyl]methylcarbamoyl]pyrrolidine-1-carbonyl]-2,2-dimethyl-propyl]amino]-2-oxo-ethoxy]acetyl]amino]methyl]-phenyl]phenyl]thiazol-2-yl]amino]-2-oxo-ethyl]-1-methylsulfonyl-pyrrole-3-carboxamide]: in experiment [1], the DC50 was greater than 10 µM and the “BRM HiBit Degradation Maximum measured” value is recorded as “C (‘C’ = Maximum degradation <50%)”. For the same compound, in experiment [2], the DC50 was greater than 10 µM and the Dmax was less than 50%.

Regarding `Cc1ncsc1-c1ccc(CNC(=O)[C@@H]2C[C@@H](O)CN2C(=O)[C@@H](NC(=O)CCCCCCCCC(=O)NCc2cccc(-c3cccc(-c4csc(NC(=O)CNC(=O)c5ccn(S(C)(=O)=O)c5)n4)c3)c2)C(C)(C)C)cc1` [Compound 19, N′-[(1S)-1-[(2S,4R)-4-hydroxy-2-[[4-(4-methylthiazol-5-yl)phenyl]methylcarbamoyl]pyrrolidine-1-carbonyl]-2,2-dimethylpropyl]-N-[[3-[3-[2-[[2-[(1-methylsulfonylpyrrole-3-carbonyl)amino]acetyl]amino]thiazol-4-yl]phenyl]phenyl]methyl]decanediamide], in experiment [1], the DC50 is less than 0.1 µM and the “BRM HiBit Degradation Maximum measured” value is reported as “A (‘A’ = Maximum degradation >75%)”. Besides, in experiment [2], the DC50 was in the range of 0.1 to 1 µM and the Dmax was greater than 75%.

Turning to `CS(=O)(=O)n1ccc(C(=O)NCC(=O)Nc2nc(-c3cccc(-c4cccc(CNC(=O)CCCCCCCCNc5cccc6c5C(=O)N(C5CCC(=O)NC5=O)C6=O)c4)c3)cs2)c1` (stereo not drawn) [Compound 20, N-(2-((4-(3′-((9-((2-(2,6-dioxopiperidin-3-yl)-1,3-dioxoisoindolin-4-yl)amino)nonanamido)methyl)-[1,1′-biphenyl]-3-yl)thiazol-2-yl)amino)-2-oxoethyl)-1-(methylsulfonyl)-1H-pyrrole-3-carboxamide], in experiment [1], the DC50 was greater than 10 µM and the “BRM HiBit Degradation Maximum measured” value is on record as “C (‘C’ = Maximum degradation <50%)”. Also, in experiment [2], the DC50 was greater than 10 µM and the Dmax lay within 50 to 75%.

Regarding `CN(CCNC(=O)CN(C)c1cc(-c2cccc(-c3csc(NC(=O)CNC(=O)c4ccn(S(C)(=O)=O)c4)n3)c2)ccn1)CCNc1cccc2c1C(=O)N(C1CCC(=O)NC1=O)C2=O` (stereo not drawn) [Compound 21, N-(2-((4-(3-(2-((2-((2-((2-((2-(2,6-dioxopiperidin-3-yl)-1,3-dioxoisoindolin-4-yl)amino)ethyl)(methyl)amino)ethyl)amino)-2-oxoethyl)(methyl)amino)pyridin-4-yl)phenyl)thiazol-2-yl)amino)-2-oxoethyl)-1-(methylsulfonyl)-1H-pyrrole-3-carboxamide], in experiment [1], the DC50 was greater than 10 µM and the “BRM HiBit Degradation Maximum measured” value is “C (‘C’ = Maximum degradation <50%)”. Moreover, in experiment [2], the DC50 was greater than 10 µM and the Dmax was less than 50%.

As for `CN(CC(=O)N1CC(COc2cccc3c2C(=O)N(C2CCC(=O)NC2=O)C3=O)C1)c1cc(-c2cccc(-c3csc(NC(=O)CNC(=O)c4ccn(S(C)(=O)=O)c4)n3)c2)ccn1` (stereo not drawn) [Compound 27], in experiment [1], the DC50 was greater than 10 µM and the “BRM HiBit Degradation Maximum measured” value is listed as “C (‘C’ = Maximum degradation <50%)”. For the same compound, in experiment [2], the DC50 is greater than 10 µM and the Dmax was less than 50%.

`CN(CC(=O)NCCCCS(=O)(=O)CCCNc1cccc2c1C(=O)N(C1CCC(=O)NC1=O)C2=O)c1cc(-c2cccc(-c3csc(NC(=O)CNC(=O)c4ccn(S(C)(=O)=O)c4)n3)c2)ccn1` (stereo not drawn) [Compound 29]: in experiment [1], the DC50 was greater than 10 µM and the “BRM HiBit Degradation Maximum measured” value was “C (‘C’ = Maximum degradation <50%)”. Moreover, in experiment [2], the DC50 was greater than 10 µM and the Dmax is less than 50%.
